Some results are limits rather than exact numbers.

Type in all cases: biochemical
Holding throughout (conditions): 10 μM ATP, 60 min, ADP-GLO luminescence
On the technique in general: ADP-Glo first removes unused ATP, then detects ADP through luciferase.

For one experiment, the target named is c-MET (Homo sapiens, UniProt P08581). Description: Enzymatic assay (ADP-Glo kinase reaction), c-MET. On the procedure: (§1) All the kinase reactions were performed in 5 μL using tyrosine kinase buffer with 0.2 μg/μL poly (Glu4, Tyr1) substrate, 10 μM ATP, serial dilution of the inhibitor, and incubated at room temperature for 60 min. After the indicated incubation times, 5 μL ADP-GLO™ reagent (Promega, Madison, WI) was added to the reactions and the plate was incubated at room temperature for 40 min. […] All 384-well assay plates were read using a GLOMAX™ Discover Microplate Luminometer from Promega (Madison, WI). To plot, analyze the data and calculate all kinase reaction biochemical values, both Microsoft Excel and Prism from GraphPad 7 Software (La Jolla, CA) were used.
Chain of c-MET (P08581 25-1390): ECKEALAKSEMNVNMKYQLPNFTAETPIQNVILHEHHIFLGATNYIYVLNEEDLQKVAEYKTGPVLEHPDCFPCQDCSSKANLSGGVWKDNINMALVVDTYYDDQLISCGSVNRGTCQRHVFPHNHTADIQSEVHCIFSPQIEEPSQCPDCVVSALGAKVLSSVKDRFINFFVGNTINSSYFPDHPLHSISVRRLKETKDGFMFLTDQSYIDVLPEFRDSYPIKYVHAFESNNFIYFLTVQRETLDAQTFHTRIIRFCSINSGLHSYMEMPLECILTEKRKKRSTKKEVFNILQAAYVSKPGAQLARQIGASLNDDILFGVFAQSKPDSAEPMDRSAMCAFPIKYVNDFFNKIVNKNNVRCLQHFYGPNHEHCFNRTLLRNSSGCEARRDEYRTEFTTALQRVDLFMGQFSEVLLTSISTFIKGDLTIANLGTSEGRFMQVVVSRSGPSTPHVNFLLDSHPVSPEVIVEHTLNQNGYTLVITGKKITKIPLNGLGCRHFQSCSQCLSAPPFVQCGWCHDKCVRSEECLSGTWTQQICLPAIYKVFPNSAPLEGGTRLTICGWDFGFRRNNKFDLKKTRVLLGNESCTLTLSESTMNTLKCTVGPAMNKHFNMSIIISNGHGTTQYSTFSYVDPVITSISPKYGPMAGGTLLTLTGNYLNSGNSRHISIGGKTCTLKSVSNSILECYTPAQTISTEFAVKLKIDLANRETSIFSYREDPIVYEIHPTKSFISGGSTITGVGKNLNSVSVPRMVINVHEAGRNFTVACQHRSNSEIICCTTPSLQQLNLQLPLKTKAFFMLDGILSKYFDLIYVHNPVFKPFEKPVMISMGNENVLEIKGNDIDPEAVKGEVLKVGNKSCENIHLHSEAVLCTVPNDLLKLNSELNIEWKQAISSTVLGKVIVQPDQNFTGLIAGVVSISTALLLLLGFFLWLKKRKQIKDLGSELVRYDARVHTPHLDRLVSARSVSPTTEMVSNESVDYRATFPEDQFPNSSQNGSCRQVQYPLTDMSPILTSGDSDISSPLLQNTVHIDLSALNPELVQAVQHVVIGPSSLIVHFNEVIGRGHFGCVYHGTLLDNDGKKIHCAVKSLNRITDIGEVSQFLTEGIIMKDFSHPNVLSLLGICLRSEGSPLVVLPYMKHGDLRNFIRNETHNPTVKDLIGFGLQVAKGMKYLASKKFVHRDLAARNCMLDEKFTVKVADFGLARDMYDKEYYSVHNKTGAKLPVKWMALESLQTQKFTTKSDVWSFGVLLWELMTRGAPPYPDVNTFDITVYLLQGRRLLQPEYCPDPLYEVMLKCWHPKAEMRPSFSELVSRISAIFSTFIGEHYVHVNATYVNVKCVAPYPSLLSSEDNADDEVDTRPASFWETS

The target of a further experiment is T1, AXL (Homo sapiens, UniProt P30530).
T1 sequence (P30530 26-894): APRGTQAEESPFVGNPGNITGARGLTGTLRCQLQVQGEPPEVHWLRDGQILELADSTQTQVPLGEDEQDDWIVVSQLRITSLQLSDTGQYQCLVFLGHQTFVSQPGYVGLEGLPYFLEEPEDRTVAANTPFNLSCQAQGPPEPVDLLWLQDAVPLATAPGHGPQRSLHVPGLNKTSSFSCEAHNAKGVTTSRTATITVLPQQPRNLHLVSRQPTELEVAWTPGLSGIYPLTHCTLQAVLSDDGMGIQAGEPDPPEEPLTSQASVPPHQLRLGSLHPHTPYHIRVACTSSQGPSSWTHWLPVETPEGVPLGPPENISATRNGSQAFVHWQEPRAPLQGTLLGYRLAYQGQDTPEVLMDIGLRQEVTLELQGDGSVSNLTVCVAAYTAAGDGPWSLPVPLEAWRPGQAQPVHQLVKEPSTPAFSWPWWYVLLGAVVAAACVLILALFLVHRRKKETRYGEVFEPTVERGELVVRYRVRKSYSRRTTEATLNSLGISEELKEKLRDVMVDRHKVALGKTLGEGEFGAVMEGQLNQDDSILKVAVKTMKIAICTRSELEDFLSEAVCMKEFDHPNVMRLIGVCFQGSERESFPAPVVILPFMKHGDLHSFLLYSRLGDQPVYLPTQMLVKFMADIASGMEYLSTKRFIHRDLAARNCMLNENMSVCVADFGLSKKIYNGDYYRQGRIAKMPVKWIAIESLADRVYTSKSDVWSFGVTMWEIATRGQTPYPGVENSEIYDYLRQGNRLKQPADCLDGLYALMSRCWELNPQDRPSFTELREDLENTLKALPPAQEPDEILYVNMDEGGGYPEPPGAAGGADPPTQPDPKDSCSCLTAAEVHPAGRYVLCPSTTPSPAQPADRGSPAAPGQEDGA
Description: Enzymatic assay (ADP-Glo kinase reaction), AXL. On the procedure:
as §1

A further experiment concerns the target T2, MER (Homo sapiens, UniProt Q12866).
T2 sequence (Q12866 21-999): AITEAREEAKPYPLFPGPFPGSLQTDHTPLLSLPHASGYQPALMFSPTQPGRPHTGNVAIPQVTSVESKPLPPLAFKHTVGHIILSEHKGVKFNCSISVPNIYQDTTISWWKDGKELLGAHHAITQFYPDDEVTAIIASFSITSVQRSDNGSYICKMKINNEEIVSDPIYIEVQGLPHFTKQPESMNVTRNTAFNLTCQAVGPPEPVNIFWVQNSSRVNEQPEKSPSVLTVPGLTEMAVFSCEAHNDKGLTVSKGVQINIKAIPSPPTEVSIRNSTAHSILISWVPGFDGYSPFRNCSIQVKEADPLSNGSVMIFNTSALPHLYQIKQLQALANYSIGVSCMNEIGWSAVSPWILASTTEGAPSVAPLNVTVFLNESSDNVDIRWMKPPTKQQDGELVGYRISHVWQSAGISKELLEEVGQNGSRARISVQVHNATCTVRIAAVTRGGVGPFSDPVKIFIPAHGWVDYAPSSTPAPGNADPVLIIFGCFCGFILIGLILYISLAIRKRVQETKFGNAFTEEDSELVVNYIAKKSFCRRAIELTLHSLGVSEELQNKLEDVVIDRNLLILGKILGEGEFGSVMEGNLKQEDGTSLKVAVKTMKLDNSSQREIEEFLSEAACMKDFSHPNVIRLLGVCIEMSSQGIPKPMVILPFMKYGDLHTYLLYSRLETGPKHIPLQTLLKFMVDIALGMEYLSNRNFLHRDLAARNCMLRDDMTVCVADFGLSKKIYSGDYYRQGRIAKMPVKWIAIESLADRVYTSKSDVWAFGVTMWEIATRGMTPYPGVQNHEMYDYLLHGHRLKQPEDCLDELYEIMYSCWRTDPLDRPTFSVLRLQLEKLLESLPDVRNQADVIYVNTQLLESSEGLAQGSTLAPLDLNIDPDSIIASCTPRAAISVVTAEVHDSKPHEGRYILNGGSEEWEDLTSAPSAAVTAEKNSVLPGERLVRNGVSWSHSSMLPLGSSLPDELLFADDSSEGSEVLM
The experiment can be described thus: Enzymatic assay (ADP-Glo kinase reaction), MER. On the procedure: (§2) All the kinase reactions were performed in 5 μL using tyrosine kinase buffer with 0.2 μg/μL poly (Glu4, Tyr1) substrate, 10 μM ATP, serial dilution of the inhibitor, and incubated at room temperature for 60 min. After the indicated incubation times, 5 μL ADP-GLO™ reagent (Promega, Madison, WI) was added to the reactions and the plate was incubated at room temperature for 40 min. Then, 10 μL of kinase detection reagent was added and after an incubation time of 40 min, luminescence was recorded and IC50 values were determined (Table 1). All 384-well assay plates were read using a GLOMAX™ Discover Microplate Luminometer from Promega (Madison, WI). To plot, analyze the data and calculate all kinase reaction biochemical values, both Microsoft Excel and Prism from GraphPad 7 Software (La Jolla, CA) were used.
as §2, with “3).” for “1).”

By IC50 is commonly meant the concentration that gives 50% inhibition. A lower IC50 goes with higher potency. For `CC(C)n1cc(C(=O)Nc2ccc(Oc3ccnc(N)c3C#CC(=O)N3CCOCC3)c(F)c2)c(=O)n(-c2ccc(F)cc2)c1=O` [Example 14, N-(4-(2-amino-3-(3-morpholino-3-oxoprop-1-ynyl)pyridin-4-yloxy)-3-fluorophenyl)-3-(4-fluorophenyl)-1-isopropyl-2,4-dioxo-1,2,3,4-tetrahydropyrimidine-5-carboxamide], the IC50 at c-MET, against AXL and against MER was under 10 nM throughout.

Take `CC(C)n1cc(C(=O)Nc2ccc(Oc3ccnc(N)c3C#CC3CCNCC3)c(F)c2)c(=O)n(-c2ccc(F)cc2)c1=O` [Example 15, N-(4-(2-amino-3-(piperidin-4-ylethynyl)pyridin-4-yloxy)-3-fluorophenyl)-3-(4-fluorophenyl)-1-isopropyl-2,4-dioxo-1,2,3,4-tetrahydropyrimidine-5-carboxamide]: the half-maximal inhibitory concentration (IC50) is under 100 nM against c-MET, under 10 nM against AXL and under 10 nM against MER.

On to `COCCN1CCC(C#Cc2c(Oc3ccc(NC(=O)c4cn(C(C)C)c(=O)n(-c5ccc(F)cc5)c4=O)cc3F)ccnc2N)CC1` [Example 16], for which the IC50 against c-MET, at AXL and on MER was under 10 nM throughout.

Regarding `CC(C)n1cc(C(=O)Nc2ccc(Oc3ccnc(N)c3C#CCN3CCNCC3)c(F)c2)c(=O)n(-c2ccc(F)cc2)c1=O` [Example 17], the half-maximal inhibitory concentration (IC50) against c-MET, on AXL and against MER was under 10 nM in each case.

Regarding `COCCN1CCN(CC#Cc2c(Oc3ccc(NC(=O)c4cn(C(C)C)c(=O)n(-c5ccc(F)cc5)c4=O)cc3F)ccnc2N)CC1` [Example 18, N-(4-(2-amino-3-(3-(4-(2-methoxyethyl)piperazin-1-yl)prop-1-ylny)pyridin-4-yloxy)-3-fluorophenyl)-3-(4-fluorophenyl)-1-isopropyl-2,4-dioxo-1,2,3,4-tetrahydropyrimidine-5-carboxamide], the IC50 at c-MET, against AXL and on MER was under 10 nM each time.

Consider `CC(C)n1cc(C(=O)Nc2ccc(Oc3ccnc(N)c3C#CC(C)(C)N3CCNCC3)c(F)c2)c(=O)n(-c2ccc(F)cc2)c1=O` [Example 19, N-(4-(2-amino-3-(3-methyl-3-(piperazin-1-yl)but-1-ynyl)pyridin-4-yloxy)-3-fluorophenyl)-3-(4-fluorophenyl)-1-isopropyl-2,4-dioxo-1,2,3,4-tetrahydropyridmidine-5-carboxamide], for which the IC50 against c-MET was under 1000 nM; on AXL it was under 10 nM; against MER it was under 10 nM.

Take `COCCN1CCN(C(C)(C)C#Cc2c(Oc3ccc(NC(=O)c4cn(C(C)C)c(=O)n(-c5ccc(F)cc5)c4=O)cc3F)ccnc2N)CC1` [Example 20, N-(4-(2-amino-3-(3-(4-(2-methoxyethyl)piperazin-1-yl)-3-methylbut-1-ynyl)pyridin-4-yloxy)-3-fluorophenyl)-3-(4-fluorophenyl)-1-isopropyl-2,4-dioxo-1,2,3,4-tetrahydropyrimidine-5-carboxamide]: the IC50 against c-MET, against AXL and on MER was under 10 nM throughout.

In the case of `COCCN1CCN(C(=O)CCc2c(Oc3ccc(NC(=O)c4cn(C(C)C)c(=O)n(-c5ccc(F)cc5)c4=O)cc3F)ccnc2N)CC1` [Example 21, N-(4-(2-amino-3-(3-(4-(2-methoxyethyl)piperazin-1-yl)-3-oxopropyl)pyridin-4-yloxy)-3-fluorophenyl)-3-(4-fluorophenyl)-1-isopropyl-2,4-dioxo-1,2,3,4-tetrahydropyrimidine-5-carboxamide], the half-inhibitory concentration (IC50) against c-MET is under 10000 nM; against AXL, under 1000 nM; against MER, under 1000 nM.

On to `CC(C)n1cc(C(=O)Nc2ccc(Oc3ccnc(N)c3-c3ccccc3)c(F)c2)c(=O)n(-c2ccc(F)cc2)c1=O` [Example 22, N-(4-(2-amino-3-phenylpyridin-4-yloxy)-3-fluorophenyl)-3-(4-fluorophenyl)-1-isopropyl-2,4-dioxo-1,2,3,4-tetrahydropyrimidine-5-carboxamide], for which the IC50 against c-MET, on AXL and against MER was under 100 nM in each case.

Turning to `CC(C)n1cc(C(=O)Nc2ccc(Oc3ccnc(N)c3C#CC3CCN(C)CC3)c(F)c2)c(=O)n(-c2ccc(F)cc2)c1=O` [Example 23, N-(4-(2-amino-3-((1-methylpiperidin-4-yl)ethynyl)pyridin-4-yloxy)-3-fluorophenyl)-3-(4-fluorophenyl)-1-isopropyl-2,4-dioxo-1,2,3,4-tetrahydropyrimidine-5-carboxamide], the IC50 on c-MET is under 1000 nM; against AXL, under 10 nM; at MER it was under 10 nM.

For `CC(C)n1cc(C(=O)Nc2ccc(Oc3ccnc(N)c3C#CC(C)(C)N3CCOCC3)c(F)c2)c(=O)n(-c2ccc(F)cc2)c1=O` [Example 25, N-(4-(2-amino-3-(3-methyl-3-morpholinobut-1-ynyl)pyridin-4-yloxy)-3-fluorophenyl)-3-(4-fluorophenyl)-1-isopropyl-2,4-dioxo-1,2,3,4-tetrahydropyrimidine-5-carboxamide], the IC50 against c-MET, against AXL and on MER was under 10 nM throughout.

Regarding `CC(C)n1cc(C(=O)Nc2ccc(Oc3ccnc(N)c3C#CCN3CCN(C)CC3)c(F)c2)c(=O)n(-c2ccc(F)cc2)c1=O` [Example 26, N-(4-(2-amino-3-(3-(4-methylpiperazin-1-yl)prop-1-ynyl)pyridine-4-yloxy)-3-fluorophenyl)-3-(4-fluorophenyl)-1-isopropyl-2,4-dioxo-1,2,3,4-tetrahydropyrimidine-5-carboxamide], the half-maximal inhibitory concentration (IC50) at c-MET, against AXL and on MER was under 10 nM throughout.
